# From patent US20260216345A1, “M6PR BINDING COMPOUNDS AND CONJUGATES” (Lycia Therapeutics, Inc., priority 2023, published 2026)
# Entries after “also recorded” stand apart in the source; their conditions may differ.
# Tests used:
# [1] = system: Jurkat cells; assay: Uptake of IgE-Alexa488 target protein in Jurkat cells; assay type: cell-based
# Procedure: The omalizumab conjugates of Example 142 were bound to IgE-Alexa488 (prepared according to Example 144), as follows: equal molar ratios of omalizumab (anti-IgE) conjugate and IgE-Alexa488 were added in tissue culture media for 30 minutes at room temperature. The resulting anti-IgE conjugate:IgE antibody-Alexa488 compositions were added to Jurkat cells (100 k cells/50 ul per well, n=2), and Alexa488 fluorescence levels in the cells were measured at 1 hour by flow cytometry. As the fluorescently labelled target (IgE antibody) accumulates in cells, the fluorescence presents a way to measure total intracellular uptake by cells over time.
# [2] = molecular target: T1, CI-M6PR (Homo sapiens, UniProt P11717); assay: CI-M6PR SPR binding assay; settings: omalizumab conjugates at DAR of about 4; relative to 529 and 552
# Procedure: The CI-M6PR binding affinities of omalizumab (anti-IgE) conjugates of Table 19 were also assessed via SPR binding assay. […] At equivalent DAR (m) values, the koff rate of the omalizumab (anti-IgE) conjugates was 552>529>570.
# Target sequence in this assay (P11717 41-2491): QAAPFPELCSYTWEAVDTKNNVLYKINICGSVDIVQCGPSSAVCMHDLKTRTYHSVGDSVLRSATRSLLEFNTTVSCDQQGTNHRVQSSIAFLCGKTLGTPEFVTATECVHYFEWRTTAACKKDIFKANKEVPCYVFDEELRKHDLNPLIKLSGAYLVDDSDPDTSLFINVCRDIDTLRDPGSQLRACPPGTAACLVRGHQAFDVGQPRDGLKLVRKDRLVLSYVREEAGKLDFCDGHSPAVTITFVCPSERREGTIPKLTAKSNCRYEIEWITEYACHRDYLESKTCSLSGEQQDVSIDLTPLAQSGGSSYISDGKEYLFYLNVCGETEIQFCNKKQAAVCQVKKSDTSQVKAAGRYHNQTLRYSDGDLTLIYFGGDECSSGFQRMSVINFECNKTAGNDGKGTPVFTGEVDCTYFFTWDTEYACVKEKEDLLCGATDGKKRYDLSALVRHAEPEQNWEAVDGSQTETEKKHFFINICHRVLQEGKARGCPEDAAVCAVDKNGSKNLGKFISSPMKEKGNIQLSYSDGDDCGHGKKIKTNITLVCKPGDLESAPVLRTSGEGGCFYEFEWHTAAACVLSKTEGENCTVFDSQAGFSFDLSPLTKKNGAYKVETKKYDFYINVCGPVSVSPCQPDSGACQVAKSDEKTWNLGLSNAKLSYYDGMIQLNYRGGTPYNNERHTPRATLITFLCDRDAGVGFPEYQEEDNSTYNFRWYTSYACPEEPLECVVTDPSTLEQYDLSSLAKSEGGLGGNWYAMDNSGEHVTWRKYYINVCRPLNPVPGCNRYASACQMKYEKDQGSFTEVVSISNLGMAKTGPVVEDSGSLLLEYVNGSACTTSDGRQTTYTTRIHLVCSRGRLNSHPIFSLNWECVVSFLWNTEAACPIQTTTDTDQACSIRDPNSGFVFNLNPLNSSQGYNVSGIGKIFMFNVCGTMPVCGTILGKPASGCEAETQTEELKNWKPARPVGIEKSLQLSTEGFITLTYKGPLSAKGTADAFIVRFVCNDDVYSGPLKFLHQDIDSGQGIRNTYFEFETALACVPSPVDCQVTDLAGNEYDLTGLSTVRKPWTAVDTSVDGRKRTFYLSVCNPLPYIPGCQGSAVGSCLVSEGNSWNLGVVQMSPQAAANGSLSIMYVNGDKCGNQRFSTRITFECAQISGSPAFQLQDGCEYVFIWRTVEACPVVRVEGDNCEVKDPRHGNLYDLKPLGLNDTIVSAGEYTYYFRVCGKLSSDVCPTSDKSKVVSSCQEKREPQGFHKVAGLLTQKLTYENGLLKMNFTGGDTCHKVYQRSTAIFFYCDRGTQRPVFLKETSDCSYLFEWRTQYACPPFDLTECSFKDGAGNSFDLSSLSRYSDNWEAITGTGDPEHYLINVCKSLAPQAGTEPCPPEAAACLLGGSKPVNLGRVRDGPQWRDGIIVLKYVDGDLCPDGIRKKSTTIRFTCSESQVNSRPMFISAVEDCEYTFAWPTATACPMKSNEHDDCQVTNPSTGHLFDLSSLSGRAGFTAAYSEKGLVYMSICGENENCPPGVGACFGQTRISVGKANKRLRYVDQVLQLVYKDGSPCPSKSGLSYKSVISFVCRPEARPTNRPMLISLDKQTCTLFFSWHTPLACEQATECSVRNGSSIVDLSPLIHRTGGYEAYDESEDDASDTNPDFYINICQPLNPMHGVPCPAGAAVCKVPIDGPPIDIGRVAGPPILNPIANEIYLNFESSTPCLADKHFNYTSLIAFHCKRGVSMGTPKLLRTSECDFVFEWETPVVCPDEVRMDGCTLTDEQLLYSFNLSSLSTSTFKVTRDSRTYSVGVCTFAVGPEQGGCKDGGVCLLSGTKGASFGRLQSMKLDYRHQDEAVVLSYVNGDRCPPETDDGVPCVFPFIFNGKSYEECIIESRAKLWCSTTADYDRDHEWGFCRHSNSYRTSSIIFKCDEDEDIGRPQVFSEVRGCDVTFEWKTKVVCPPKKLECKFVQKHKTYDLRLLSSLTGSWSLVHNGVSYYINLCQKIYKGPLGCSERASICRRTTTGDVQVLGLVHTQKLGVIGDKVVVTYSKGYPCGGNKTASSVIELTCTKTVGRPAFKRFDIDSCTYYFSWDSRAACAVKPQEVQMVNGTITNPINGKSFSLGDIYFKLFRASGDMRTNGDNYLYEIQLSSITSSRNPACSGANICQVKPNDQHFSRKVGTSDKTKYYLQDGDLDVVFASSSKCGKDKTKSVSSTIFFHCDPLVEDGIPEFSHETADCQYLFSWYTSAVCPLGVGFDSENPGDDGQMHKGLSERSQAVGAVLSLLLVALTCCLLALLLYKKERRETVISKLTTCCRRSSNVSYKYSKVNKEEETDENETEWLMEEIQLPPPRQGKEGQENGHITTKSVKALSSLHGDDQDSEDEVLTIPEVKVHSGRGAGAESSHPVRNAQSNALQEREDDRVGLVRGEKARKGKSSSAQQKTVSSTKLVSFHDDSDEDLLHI
# [3] = molecular target: T2, M6PR (Domains 1-9) (Homo sapiens, UniProt P11717); assay: General M6PR binding assay (fluorescence polarization); settings: 100 nM M6PR, 1 nM probe, 2 hr incubation
# T2 construct: with 100 nM M6PR (Domains 1-9, R&D Systems) and 1 nM probe; purchased R&D Systems
# Procedure: M6PR binding was measured in black 96-well plates using a fluorescence polarization assay. A fluorescent probe consisting of a reference M6Pn ligand linked to Cy5 was synthesized. Test compounds were resuspended in DMSO and 3-fold serial dilutions were made at 100× final concentrations. Binding reactions were conducted in 100 μl final volume in 20 mM HEPES (pH 7.5) 100 mM NaCl 0.015% o Tween-20 1% DMSO with 100 nM M6PR (Domains 1-9, R&D Systems) and 1 nM probe. Fluorescence polarization was measured using λex=620 nm, λem=688 nm on an Envision plate reader (Perkin Elmer) after 2 hr incubation time. Dose responses were conducted in duplicate and normalized to the response with DMSO (high) and 1 μM reference compound (low) on each plate. IC50 values were determined by fitting to 4-parameter curves in GraphPad Prism.
# [4] = molecular target: T1, CI-M6PR; assay: Human CI-M6PR binding assay (ELISA); design: purchased R&D 6418-GR-050; settings: for binding affinity to M6PR, rank among the conjugates tested: matuzumab conjugates (FIGS. 7A-7F), I-7 at d8 (DAR 8), I-11 at d4 (DAR 4)
# Procedure: Nunc black solid bottom MaxiSorp plates were allowed to incubate overnight at 4° C. coated with 1 μg/mL of recombinant human CI-M6PR protein (R&D, 6418-GR-050) in 50 μL PBS. The next day, coating was decanted and plates were washed 3× with PBS. Wells were blocked with 350 μL of 3% BSA-PBS for 1 hour at room temperature. […] 50 μL of diluted conjugates were added to the plate and allowed to incubate at room temperature for 2 hours. After incubation, solutions in plate were decanted and washed with 350 μL of 0.05% PBS-Tween20 three times, drying the plate each wash on a clean paper towel. 50 μL of peroxidase AffiniPure Mouse Anti-Human IgG (Jackson Immuno, 209-035-088) diluted in 3% BSA-PBS to […] was added to the plate and allowed to incubate for 1 hour at room temperature in the dark. After incubation, solutions in plate were decanted and washed with 350 μL of 0.05% PBS-Tween20 3 times, drying the plate each wash on a clean paper towel. […] 50 μL of QuantaBlu solution was added to wells and allowed to incubate for 5-10 minutes at room temperature. After incubation, plates were read on a Perkin Elmer EnVision using photometric 340 and Umbelliferone 460 filter sets for excitation and emission, respectively. Data analysis and non-linear curve-fitting was performed using GraphPad Prism.
# Target sequence in this assay (P11717 41-1365 limits assumed): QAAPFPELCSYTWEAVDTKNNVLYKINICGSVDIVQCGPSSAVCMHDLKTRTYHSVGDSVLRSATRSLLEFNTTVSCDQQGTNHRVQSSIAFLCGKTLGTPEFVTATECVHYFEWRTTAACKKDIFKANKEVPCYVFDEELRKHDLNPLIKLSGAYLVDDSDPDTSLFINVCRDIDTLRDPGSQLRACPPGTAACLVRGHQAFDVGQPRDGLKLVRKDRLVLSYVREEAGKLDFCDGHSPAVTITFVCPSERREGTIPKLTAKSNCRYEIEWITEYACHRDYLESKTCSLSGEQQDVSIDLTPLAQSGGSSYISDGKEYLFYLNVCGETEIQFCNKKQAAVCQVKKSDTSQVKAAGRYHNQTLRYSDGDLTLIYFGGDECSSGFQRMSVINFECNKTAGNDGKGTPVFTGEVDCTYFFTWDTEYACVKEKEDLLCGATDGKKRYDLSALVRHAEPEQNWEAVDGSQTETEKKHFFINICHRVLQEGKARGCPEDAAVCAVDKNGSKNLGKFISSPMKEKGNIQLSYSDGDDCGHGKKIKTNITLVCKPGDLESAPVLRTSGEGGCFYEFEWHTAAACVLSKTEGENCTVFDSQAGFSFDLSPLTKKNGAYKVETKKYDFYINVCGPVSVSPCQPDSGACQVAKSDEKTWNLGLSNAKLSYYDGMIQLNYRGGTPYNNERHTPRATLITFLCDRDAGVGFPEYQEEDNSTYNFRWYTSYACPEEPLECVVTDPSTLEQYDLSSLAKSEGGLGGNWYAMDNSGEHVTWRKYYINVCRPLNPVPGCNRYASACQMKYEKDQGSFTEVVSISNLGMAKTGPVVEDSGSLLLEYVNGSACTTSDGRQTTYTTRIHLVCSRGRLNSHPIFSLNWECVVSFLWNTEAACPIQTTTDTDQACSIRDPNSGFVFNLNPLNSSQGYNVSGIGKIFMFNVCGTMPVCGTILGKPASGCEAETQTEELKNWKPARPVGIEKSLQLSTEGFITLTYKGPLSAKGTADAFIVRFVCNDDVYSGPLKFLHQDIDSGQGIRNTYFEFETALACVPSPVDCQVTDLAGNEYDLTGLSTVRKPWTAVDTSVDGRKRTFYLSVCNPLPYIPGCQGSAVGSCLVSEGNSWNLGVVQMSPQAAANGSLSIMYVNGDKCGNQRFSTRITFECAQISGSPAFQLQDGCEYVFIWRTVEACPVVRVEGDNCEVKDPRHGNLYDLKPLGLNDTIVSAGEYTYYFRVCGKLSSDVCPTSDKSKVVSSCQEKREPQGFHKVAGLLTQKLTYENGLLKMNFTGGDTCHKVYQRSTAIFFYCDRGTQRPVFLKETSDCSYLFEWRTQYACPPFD
# [5] = Serum pharmacokinetic analysis of rIgG1 (anti-IgG2a) antibody conjugates; assay type: in vivo, mice; settings: intravenous 10 μg/mouse, compared to Compound I-7
# Procedure: A pharmacokinetic analysis of the rIgG1 (anti-IgG2a) antibody conjugates described in the previous example was performed in mice. In particular, […] mice were intravenously administered each rIgG1 antibody conjugate at 10 μg/mouse (5 mice per group). Blood was collected at 0.5, 1, 2, 6, and 24 hours and serum rIgG1 was analyzed using an ELISA kit (Abcam) according to the manufacturer's instructions. Samples were run across 3 different plates with unconjugated rIgG1 controls (UNLB-anti-IgG2a rIgG1) included on all 3 plates. FIGS. 8A-8C show the serum levels of anti-IgG2a conjugated to Compound 1-7 (dar8) and (dar4) (FIG. 8A), anti-IgG2a conjugated to Compound I-10 and anti-IgG2a conjugated to Compound I-11 (FIG. 8B), and anti-IgG2a conjugated to Compound I-9 and anti-IgG2a conjugated to Compound I-12 (FIG. 8C) over time.
# [6] = system: Jurkat cells; assay: Uptake of IgG2a-Alexa488 into Jurkat cells; assay type: cell-based; settings: anti-IgG2a conjugates, 1 hour and 24 hours
# Procedure: The anti-IgG2a conjugates were bound to IgG2a-Alexa488, as follows: equal molar ratios of anti-IgG2a and IgG2a-Alexa488 were added in tissue culture media for 30 minutes at room temperature. The resulting anti-IgG2a:IgG2a antibody-Alexa488 compositions were added to Jurkat cells (100 k cells/50 ul per well, n=2), and Alexa488 fluorescence levels were measured (via Alexa488 measurement) at 1 hour and 24 hours by flow cytometry. As the fluorescently labelled target (IgG2a antibody) accumulates in cells, the fluorescence presents a way to measure total intracellular uptake by cells over time.
# [7] = omalizumab conjugates of Table 15B, Jurkat cells, 1 hour (FIG. 18-21)
# [8] = omalizumab conjugates of Table 19, Jurkat cells (FIG. 23)
# [9] = omalizumab conjugates of Table 15A, Jurkat cells, 1 hour (FIG. 15-17)
# T2 sequence (P11717 41-1365 limits assumed): as above
structure (smiles),measurement,setting,value
O=C(NCCCCc1cn(CCOCCOCCOCCOCCC(=O)Oc2c(F)c(F)c(F)c(F)c2F)nn1)Nc1ccc(S[C@@H]2O[C@H](CCP(=O)(O)O)[C@@H](O)[C@H](O)[C@@H]2O)cc1 [Compound 570],cellular uptake activity of Alexa488 labeled-target IgE,[1]; [7],superior activity
same,cellular uptake activity of Alexa488 labeled-target IgE,[1]; [8],superior activity
same,Kd,[2],superior Kd
O=C(NCCCCc1cn(-c2cccnc2)nn1)Nc1ccc(O[C@@H]2O[C@H](CCP(=O)(O)O)[C@@H](O)[C@H](O)[C@@H]2O)cc1 [Compound P1],IC50,[3],100 to 500 nM
CO[C@H]1O[C@H](COCCCCCc2cn(CCOCCOCCOCCOCCC(=O)Oc3c(F)c(F)c(F)c(F)c3F)nn2)[C@@H](O)[C@H](O)[C@@H]1O[C@H]1O[C@H](CCP(=O)(O)O)[C@@H](O)[C@H](O)[C@@H]1O [Compound 659],cellular uptake activity of Alexa488 labeled-target IgE,[1]; [7],potent and comparable activity
O=C(CCOCCOCCOCCN(CCOCCOCCOCCn1cc(CCO[C@H]2O[C@H](CCP(=O)(O)O)[C@@H](O)[C@H](O)[C@@H]2O)nn1)CCOCCOCCOCCn1cc(CCO[C@H]2O[C@H](CCP(=O)(O)O)[C@@H](O)[C@H](O)[C@@H]2O)nn1)Oc1c(F)c(F)c(F)c(F)c1F [Compound 716],cellular uptake activity of Alexa488 labeled-target IgE,[1]; [9],inferior uptake
O=C(NCCCCc1cn(-c2cccnc2)nn1)Nc1ccc(O[C@H]2O[C@H](CCP(=O)(O)O)[C@@H](O)[C@H](O)[C@@H]2O)cc1 [Compound P2],IC50,[3],100 to 500 nM
O=C(NCCCCc1cn(CCOCCOCCOCCOCCC(=O)Oc2c(F)c(F)c(F)c(F)c2F)nn1)Nc1ccc(S[C@H]2O[C@H](CCP(=O)(O)O)[C@@H](O)[C@H](O)[C@@H]2O)cc1 [Compound 552],cellular uptake activity of Alexa488 labeled-target IgE,[1]; [7],comparable activity; also recorded: more activity when at m=6 loading versus m=4 loading
same,cellular uptake activity of Alexa488 labeled-target IgE,[1]; [8],comparable by less activity
O=C(CCOCCn1cc(CCO[C@H]2O[C@H](CCP(=O)(O)O)[C@@H](O)[C@H](O)[C@@H]2O)nn1)Oc1c(F)c(F)c(F)c(F)c1F [605 (I-11)],"binding affinity to M6PR, rank among the conjugates tested",[4],lowest binding affinity
O=C(NCCCCc1cn(-c2cccnc2)nn1)Nc1ccc(S[C@@H]2O[C@H](CCP(=O)(O)O)[C@@H](O)[C@H](O)[C@@H]2O)cc1 [Compound P3],IC50,[3],100 to 500 nM
CO[C@H]1C[C@H](c2cn(CCOCCOCCOCCOCCOCCOCCC(=O)Oc3c(F)c(F)c(F)c(F)c3F)nn2)[C@@H](O)[C@H](O)[C@@H]1O[C@H]1O[C@H](CCP(=O)(O)O)[C@@H](O)[C@H](O)[C@@H]1O [Compound 660],cellular uptake activity of Alexa488 labeled-target IgE,[1]; [7],potent and comparable activity
O=C(NCCCCc1cn(CCOCCOCCOCCOCCC(=O)Oc2c(F)c(F)c(F)c(F)c2F)nn1)Nc1ccc(O[C@H]2C[C@H](CCP(=O)(O)O)[C@@H](O)[C@H](O)[C@@H]2O)cc1 [Compound 665],cellular uptake activity of Alexa488 labeled-target IgE,[1]; [9],low activity
O=C(NCCCCc1cn(CCOCCOCCOCCOCCC(=O)Oc2c(F)c(F)cc(F)c2F)nn1)Nc1ccc(O[C@H]2O[C@H](CCP(=O)(O)O)[C@@H](O)[C@H](O)[C@@H]2O)cc1 [Compound 558],cellular uptake activity of Alexa488 labeled-target IgE,[1]; [9],"active in this assay, although less active"
O=C(CCOCCn1cc(CCO[C@H]2O[C@H](CCP(=O)(O)O)[C@@H](O)[C@H](O)[C@@H]2O)nn1)Oc1c(F)c(F)c(F)c(F)c1F [Compound I-11],half-life in mice,[5],longer half-life
same,intracellular uptake of IgG2a-Alexa488,[6],sufficiently robust uptake
same,binding affinity to M6PR compared to Compound I-7,[4]; conjugates of ligand linkers,weaker binding affinity
O=C(NCCCCc1cn(-c2cccnc2)nn1)Nc1ccc(S[C@H]2O[C@H](CCP(=O)(O)O)[C@@H](O)[C@H](O)[C@@H]2O)cc1 [Compound P4],IC50,[3],100 to 500 nM
O=C(CCOCCOCCOCCOCCn1cc(CCCCNC(=S)Nc2ccc(O[C@H]3O[C@H](CCP(=O)(O)O)[C@@H](O)[C@H](O)[C@@H]3O)cc2)nn1)Oc1c(F)c(F)c(F)c(F)c1F [520 (I-7)],"binding affinity to M6PR, rank among the conjugates tested",[4],highest
